Like-named read-outs stand apart in the source and are kept apart here.
Key:
Type in all cases: biochemical
CYP2D6 = target: T1, CYP2D6 (Homo sapiens, UniProt P10635); experiment: Cocktail assay for CYPs in human liver microsomes: CYP2D6 (dextromethorphan O-demethylation); settings: 5 μM dextromethorphan, 10 min at 37° C., 6 concentrations up to 10 μM
T1 construct: 0.1 mg/mL protein human liver microsomes (BD Gentest); tissue BD Gentest; host or cells: human liver microsomes

CYP2C19 = target: T2, CYP2C19 (Homo sapiens, UniProt P33261); experiment: Cocktail assay for CYPs in human liver microsomes: CYP2C19 (mephenytoin 4′-hydroxylation); settings: 30 μM mephenytoin, 10 min at 37° C., 6 concentrations up to 10 μM
T2 construct: 0.1 mg/mL protein human liver microsomes (BD Gentest); tissue BD Gentest; host or cells: human liver microsomes
T2 sequence (P33261 whole entry): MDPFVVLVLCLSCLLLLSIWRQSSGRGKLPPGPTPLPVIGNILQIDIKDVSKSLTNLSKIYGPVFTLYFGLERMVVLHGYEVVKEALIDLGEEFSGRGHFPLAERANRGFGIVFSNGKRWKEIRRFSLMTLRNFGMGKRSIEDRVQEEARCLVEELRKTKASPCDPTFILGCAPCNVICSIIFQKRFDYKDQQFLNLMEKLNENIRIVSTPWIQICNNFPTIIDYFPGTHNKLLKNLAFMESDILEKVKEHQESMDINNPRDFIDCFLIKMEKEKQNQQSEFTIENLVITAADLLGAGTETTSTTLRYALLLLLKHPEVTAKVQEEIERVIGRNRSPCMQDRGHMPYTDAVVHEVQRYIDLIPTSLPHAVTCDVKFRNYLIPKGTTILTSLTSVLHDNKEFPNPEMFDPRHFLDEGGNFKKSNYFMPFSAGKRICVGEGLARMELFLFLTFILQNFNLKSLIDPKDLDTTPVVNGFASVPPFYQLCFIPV

CYP2C9 = target: T3, CYP2C9 (Homo sapiens, UniProt P11712); experiment: Cocktail assay for CYPs in human liver microsomes: CYP2C9 (diclofenac 4′-hydroxylation); settings: 5 μM diclofenac, 10 min at 37° C., 6 concentrations up to 10 μM
T3 construct: 0.1 mg/mL protein human liver microsomes (BD Gentest); tissue BD Gentest; host or cells: human liver microsomes
T3 sequence (P11712 whole entry): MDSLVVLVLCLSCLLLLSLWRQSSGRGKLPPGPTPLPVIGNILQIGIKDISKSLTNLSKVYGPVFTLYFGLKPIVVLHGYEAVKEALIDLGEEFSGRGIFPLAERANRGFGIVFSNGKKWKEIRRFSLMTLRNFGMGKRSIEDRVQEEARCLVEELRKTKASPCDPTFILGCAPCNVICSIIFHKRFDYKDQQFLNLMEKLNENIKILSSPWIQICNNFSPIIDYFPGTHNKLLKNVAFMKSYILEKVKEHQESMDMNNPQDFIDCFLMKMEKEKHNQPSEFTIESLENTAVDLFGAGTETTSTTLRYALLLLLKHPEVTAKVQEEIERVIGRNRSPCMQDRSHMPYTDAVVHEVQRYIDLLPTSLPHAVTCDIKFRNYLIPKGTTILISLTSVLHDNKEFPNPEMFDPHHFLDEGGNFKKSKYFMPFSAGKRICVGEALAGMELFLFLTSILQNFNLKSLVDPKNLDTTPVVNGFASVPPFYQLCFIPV

CYP1A2 = target: T4, CYP1A2 (Homo sapiens, UniProt P05177); experiment: Cocktail assay for CYPs in human liver microsomes: CYP1A2 (phenacetin O-deethylation)
T4 construct: 0.1 mg/mL protein human liver microsomes (BD Gentest); tissue BD Gentest; host or cells: human liver microsomes
T4 sequence (P05177 1-516): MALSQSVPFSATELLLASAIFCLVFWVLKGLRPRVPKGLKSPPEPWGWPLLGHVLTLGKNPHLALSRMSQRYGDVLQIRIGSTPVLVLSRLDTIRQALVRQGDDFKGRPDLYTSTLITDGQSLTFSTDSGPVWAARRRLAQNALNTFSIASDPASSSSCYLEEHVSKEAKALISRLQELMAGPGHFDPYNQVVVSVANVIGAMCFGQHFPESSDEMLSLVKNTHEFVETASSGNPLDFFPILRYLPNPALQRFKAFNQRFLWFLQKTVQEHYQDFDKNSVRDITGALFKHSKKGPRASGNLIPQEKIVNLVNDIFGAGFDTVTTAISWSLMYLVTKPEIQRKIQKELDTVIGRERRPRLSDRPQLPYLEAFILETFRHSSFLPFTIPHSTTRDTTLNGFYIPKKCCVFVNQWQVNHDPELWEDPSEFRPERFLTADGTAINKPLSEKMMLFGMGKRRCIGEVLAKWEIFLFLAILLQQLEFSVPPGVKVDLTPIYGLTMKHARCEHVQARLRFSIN

CYP3A4 = target: T5, CYP3A4 (Homo sapiens, UniProt P08684); experiment: Cocktail assay for CYPs in human liver microsomes: CYP3A4 (midazolam 1′-hydroxylation); settings: 2 μM midazolam, 10 min at 37° C., 6 concentrations up to 10 μM
T5 construct: 0.1 mg/mL protein human liver microsomes (BD Gentest); tissue BD Gentest; host or cells: human liver microsomes
T5 sequence (P08684 whole entry): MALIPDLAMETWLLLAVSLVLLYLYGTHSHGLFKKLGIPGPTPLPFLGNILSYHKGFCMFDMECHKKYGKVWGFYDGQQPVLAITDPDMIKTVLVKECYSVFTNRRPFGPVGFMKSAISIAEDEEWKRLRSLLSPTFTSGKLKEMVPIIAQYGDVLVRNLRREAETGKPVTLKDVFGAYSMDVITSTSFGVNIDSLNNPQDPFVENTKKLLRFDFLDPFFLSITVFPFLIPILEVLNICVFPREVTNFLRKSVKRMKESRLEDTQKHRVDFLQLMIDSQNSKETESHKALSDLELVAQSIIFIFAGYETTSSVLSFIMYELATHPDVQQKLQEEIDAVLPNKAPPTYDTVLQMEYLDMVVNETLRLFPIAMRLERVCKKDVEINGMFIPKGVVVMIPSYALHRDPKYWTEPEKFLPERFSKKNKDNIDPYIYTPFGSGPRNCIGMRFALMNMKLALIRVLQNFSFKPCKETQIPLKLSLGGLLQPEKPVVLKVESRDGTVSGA

[1] = human liver microsomes 0.1 mg/mL, read-out: IC50 (nM) CYP2D6
[2] = human liver microsomes 0.1 mg/mL, read-out: IC50 (nM) CYP2C19
[3] = human liver microsomes 0.1 mg/mL, read-out: IC50 (nM) CYP2C9
[4] = human liver microsomes 0.1 mg/mL, 10 μM phenacetin, 10 min at 37° C., 6 concentrations up to 10 μM, read-out: IC50 (nM) CYP1A2
[5] = human liver microsomes 0.1 mg/mL, read-out: IC50 (nM) CYP3A4
[6] = IC50 (nM) CYP2D6, human liver microsomes 0.1 mg/mL
[7] = IC50 (nM) CYP2C19, human liver microsomes 0.1 mg/mL
[8] = IC50 (nM) CYP2C9, human liver microsomes 0.1 mg/mL
[9] = IC50 (nM) CYP3A4, human liver microsomes 0.1 mg/mL

T1 sequence (P10635 whole entry): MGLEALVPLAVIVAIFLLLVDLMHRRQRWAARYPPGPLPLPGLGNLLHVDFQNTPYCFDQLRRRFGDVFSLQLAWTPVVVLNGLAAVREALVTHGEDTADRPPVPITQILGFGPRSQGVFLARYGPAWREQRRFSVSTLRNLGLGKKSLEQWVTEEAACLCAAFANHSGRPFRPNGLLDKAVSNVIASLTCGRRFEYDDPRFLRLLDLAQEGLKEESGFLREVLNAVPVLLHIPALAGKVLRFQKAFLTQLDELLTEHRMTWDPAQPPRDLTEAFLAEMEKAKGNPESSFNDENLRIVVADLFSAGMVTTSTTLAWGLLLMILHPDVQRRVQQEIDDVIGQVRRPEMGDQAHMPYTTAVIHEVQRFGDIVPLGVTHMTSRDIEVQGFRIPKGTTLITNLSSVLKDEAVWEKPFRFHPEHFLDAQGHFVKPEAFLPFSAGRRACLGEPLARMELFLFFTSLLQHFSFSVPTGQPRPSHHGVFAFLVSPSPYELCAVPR

| Compound | IC50 (CYP2D6; [1]) [nM] | IC50 (CYP2C19; [2]) [nM] | IC50 (CYP2C9; [3]) [nM] | IC50 (CYP1A2; [4]) [nM] | IC50 (CYP3A4; [5]) [nM] | IC50 (CYP2D6; [6]) [nM] | IC50 (CYP2C19; [7]) [nM] | IC50 (CYP2C9; [8]) [nM] | IC50 (CYP1A2) [nM] | IC50 (CYP3A4; [9]) [nM] |
| --- | --- | --- | --- | --- | --- | --- | --- | --- | --- | --- |
| C[C@H](c1ccc(C#N)cc1)n1cncc1CN1CCN(c2ccccc2)C(C(=O)N2CCCCC2)C1 (single isomer, unassigned) [Compound 45a] | > 10000 | 5500 | 7770 | > 10000 | 12 |  |  |  |  |  |
| C[C@H](c1ccc(C#N)cc1)n1cncc1CN1CCN(c2ccccc2)C(C(=O)N2CCCCC2)C1 (single isomer, unassigned) [Compound 45b] | > 10000 | 5180 | 4000 | > 10000 | 20 |  |  |  |  |  |
| C[C@H](c1ccc(F)cc1)n1cncc1CN1CCN(C(=O)c2ccccc2)C(c2ccccc2)C1 (single isomer, unassigned) [Compound 50a] | 4000 | 4330 | 4360 | > 10000 | 16 |  |  |  |  |  |
| C[C@H](c1ccc(F)cc1)n1cncc1CN1CCN(C(=O)c2ccccc2)C(c2ccccc2)C1 (single isomer, unassigned) [Compound 50b] | > 10000 | 4400 | 1280 | > 10000 | 5 |  |  |  |  |  |
| C[C@H](c1ccc(F)cc1)n1cncc1CN1CCN(C(=O)C2CCOCC2)C(c2ccccc2)C1 (single isomer, unassigned) [Compound 52a] | > 10000 | 8490 | > 10000 | > 10000 | 7 |  |  |  |  |  |
| C[C@H](c1ccc(F)cc1)n1cncc1CN1CCN(C(=O)C2CCOCC2)C(c2ccccc2)C1 (single isomer, unassigned) [Compound 52b] | > 10000 | 3670 | 6200 | > 10000 | 27 |  |  |  |  |  |
| CCC1(C#N)CCN(Cc2cncn2[C@H](C)c2ccc(F)cc2)CC1 [Compound 1, (R)-4-Ethyl-1-((1-(1-(4-fluorophenyl)ethyl)-1H-imidazol-5-yl)methyl)piperidine-4-carbonitrile] | > 10000 | 6220 | 7370 | > 10000 | 20 |  |  |  |  |  |
| CC(C)C1(C#N)CCN(Cc2cncn2[C@H](C)c2ccc(F)cc2)CC1 [Compound 2, (R)-1-((1-(1-(4-fluorophenyl)ethyl)-1H-imidazol-5-yl)methyl)-4-isopropylpiperidine-4-carbonitrile] | > 10000 | > 10000 | > 10000 | > 10000 | 18 |  |  |  |  |  |
| C[C@H](c1ccc(F)cc1)n1cncc1CN1CCC(C)(C#N)CC1 [Compound 3, (R)-1-((1-(1-(4-fluorophenyl)ethyl)-1H-imidazol-5-yl)methyl)-4-methylpiperidine-4-carbonitrile] | 8710 | > 10000 | > 10000 | > 10000 | 37 |  |  |  |  |  |
| CC1(C#N)CCN(Cc2cncn2Cc2nc3ccccc3s2)CC1 [Compound 4, 1-((1-(benzo[d]thiazol-2-ylmethyl)-1H-imidazol-5-yl)methyl)-4-methylpiperidine-4-carbonitrile] | > 10000 | 2680 | 3270 | > 10000 | 58 |  |  |  |  |  |
| C[C@H](c1ccc(F)cc1)n1cncc1CN1CCC(C#N)(C2CCCC2)CC1 [Compound 5, (R)-4-cyclopentyl-1-((1-(1-(4-fluorophenyl)ethyl)-1H-imidazol-5-yl)methyl)piperidine-4-carbonitrile] | 7330 | 3740 | 3250 | 5570 | 15 |  |  |  |  |  |
| CCCC1(C#N)CCN(Cc2cncn2[C@H](C)c2ccc(F)cc2)CC1 [Compound 6, (R)-1-((1-(1-(4-fluorophenyl)ethyl)-1H-imidazol-5-yl)methyl)-4-propylpiperidine-4-carbonitrile] | 4960 | 7920 | 5670 | > 10000 | 27 |  |  |  |  |  |
| C[C@H](c1ccc(F)cc1)n1cncc1CN1CCC(C#N)(C2CCOCC2)CC1 [Compound 7, (R)-1-((1-(1-(4-fluorophenyl)ethyl)-1H-imidazol-5-yl)methyl)-4-(tetrahydro-2H-pyran-4-yl)piperidine-4-carbonitrile] | 8480 | > 10000 | 8170 | > 10000 | 21 |  |  |  |  |  |
| CC(C)CC1(C#N)CCN(Cc2cncn2[C@H](C)c2ccc(F)cc2)CC1 [Compound 8, (R)-1-((1-(1-(4-fluorophenyl)ethyl)-1H-imidazol-5-yl)methyl)-4-isobutylpiperidine-4-carbonitrile] | 2490 | 3250 | 2530 | 9180 | 22 |  |  |  |  |  |
| CCc1noc(C2(C)CCN(Cc3cncn3[C@H](C)c3ccc(F)cc3)CC2)n1 [Compound 9, (R)-3-ethyl-5-(1-((1-(1-(4-fluorophenyl)ethyl)-1H-imidazol-5-yl)methyl)-4-methylpiperidin-4-yl)-1,2,4-oxadiazole] | 2520 | 2270 | 2510 | > 10000 | 21 |  |  |  |  |  |
| Cc1noc(C2(C)CCN(Cc3cncn3[C@H](C)c3ccc(F)cc3)CC2)n1 [Compound 10, (R)-5-(1-((1-(1-(4-fluorophenyl)ethyl)-1H-imidazol-5-yl)methyl)-4-methylpiperidin-4-yl)-3-methyl-1,2,4-oxadiazole] | 2100 | 7020 | 2330 | > 10000 | 17 |  |  |  |  |  |
| CC(C)c1noc(C2(C)CCN(Cc3cncn3[C@H](C)c3ccc(F)cc3)CC2)n1 [Compound 11, (R)-5-(1-((1-(1-(4-fluorophenyl)ethyl)-1H-imidazol-5-yl)methyl)-4-methylpiperidin-4-yl)-3-isopropyl-1,2,4-oxadiazole] | 5990 | 3310 | 2880 | 5070 | 21 |  |  |  |  |  |
| N#Cc1ccc(C2(n3cncc3CN3CCC(C#N)(c4ccc(F)cc4)CC3)CC2)cc1 [Compound 12, 1-((1-(1-(4-cyanophenyl)cyclopropyl)-1H-imidazol-5-yl)methyl)-4-(4-fluorophenyl)piperidine-4-carbonitrile] |  |  |  |  |  | 6360 | 3980 | 5320 | 1470 | 50 |
| C[C@H](c1ccc(F)cc1)n1cncc1CN1CCC(C#N)(c2ccccn2)CC1 [Compound 13, (R)-1-((1-(1-(4-fluorophenyl)ethyl)-1H-imidazol-5-yl)methyl)-4-(pyridin-2-yl)piperidine-4-carbonitrile] | > 10000 | 6400 | 4670 | > 10000 | 10 |  |  |  |  |  |
| C[C@H](c1ccc(F)cc1)n1cncc1CN1CCC(C#N)(c2ccccc2)CC1 [Compound 14, (R)-1-((1-(1-(4-fluorophenyl)ethyl)-1H-imidazol-5-yl)methyl)-4-phenylpiperidine-4-carbonitrile] |  |  |  |  |  | 3700 | 2600 | 2200 | 5520 | 17 |
| COC(=O)C1(c2ccccc2)CCN(Cc2cncn2[C@H](C)c2ccc(F)cc2)CC1 [Compound 15, (R)-methyl 1-((1-(1-(4-fluorophenyl)ethyl)-1H-imidazol-5-yl)methyl)-4-phenylpiperidine-4-carboxylate] |  |  |  |  |  | 2080 | 1250 | 1390 | 2420 | 16 |
| CC(c1ccccc1-c1ccc(F)cc1)n1cncc1CN1CCC(F)(F)C1 (stereo not shown) [Compound 16, 5-((3,3-difluoropyrrolidin-1-yl)methyl)-1-(1-(4′-fluoro-[1,1′-biphenyl]-2-yl)ethyl)-1H-imidazole] | 1930 | 4270 | 7470 | > 10000 | 18 |  |  |  |  |  |
| CC(c1ccccc1-c1ccc(F)cc1)n1cncc1CN1CCC(O)C1 (stereo not shown) [Compound 17, 1-((1-(1-(4′-fluoro-[1,1′-biphenyl]-2-yl)ethyl)-1H-imidazol-5-yl)methyl) pyrrolidin-3-ol] | 4040 | > 10000 | > 10000 | > 10000 | 29 |  |  |  |  |  |

Reference: patent publication US10745377B2, “Piperidine or piperazine linked imidazole and triazole derivatives and methods of use” (MERCK SHARP & DOHME CORP., priority 2013, dated 2020)
